Reference: US12371454B2, “Cyclic peptide compound having Kras inhibitory action” (priority 2019, dated 2025)
Starred links: 1 amine or outer side, 2 acyl side, 3 side chain; linkers in the order of their positions; H or OH if unused. Positions of bridges follow the written chain, without caps; N, C: chain ends. Non-standard residues stand in square brackets, D forms with d. Residues, ends and D or L forms follow the SMILES beside them. *: point of attachment. hPhe(3-Cl-4-CF3) = N[C@@H](CCc1ccc(C(F)(F)F)c(Cl)c1)C(=O)O; hPhe(3-F,4-CF3) = N[C@@H](CCc1ccc(C(F)(F)F)c(F)c1)C(=O)O; NEtAsp = CCN([C@@H](CC(=O)[*:3])C(=O)[*:2])[*:1]; 3Oxa8azabicyclo(3.2.1)octane = C1CC2COCC1N2*; NMeAbu(4,4,4-F3) = CN[C@@H](CC(F)(F)F)C(=O)O; NMePhe(3-Me) = CN[C@@H](Cc1cccc(C)c1)C(=O)O; X6 = CCN([C@@H](CC1CCCCC1)C(=O)[*:2])[*:1]; NMeAla(cPent) = CN[C@@H](CC1CCCC1)C(=O)O; NMeGly(cPent) = CN[C@H](C(=O)O)C1CCCC1; NMeAla(cPr) = CN[C@@H](CC1CC1)C(=O)O; NMe4Pal = CN[C@@H](Cc1ccncc1)C(=O)O; NMeGly(cBu) = CN[C@H](C(=O)O)C1CCC1; NMeCha = CN[C@@H](CC1CCCCC1)C(=O)O; NMeChg = CN[C@H](C(=O)O)C1CCCCC1; NMeD = CN[C@@H](CC(=O)O)C(=O)O; NMeL = CN[C@@H](CC(C)C)C(=O)O; Chg = N[C@H](C(=O)O)C1CCCCC1; NMePra = C#CC[C@H](NC)C(=O)O; NMeNva = CCC[C@H](NC)C(=O)O; NMeV = CN[C@H](C(=O)O)C(C)C; Trifluoroethyl = FC(F)(F)C*; d(β3hA) = C[C@@H](N)CC(=O)O; NMeS = CN[C@@H](CO)C(=O)O; Morpholide = C1CN(*)CCO1; NMeA = CN[C@@H](C)C(=O)O; Piperidide = C1CCN(*)CC1; Ac5c = NC1(C(=O)O)CCCC1; Aze = O=C(O)[C@@H]1CCN1; Ac4c = NC1(C(=O)O)CCC1; Sar = CNCC(=O)O; Propyl = CCC*

Assays:
[1] = biological target: T1, Kras and SOS1 (biotin-tagged human Kras loaded with GDP, His-tagged human SOS1) (Homo sapiens, UniProt P01116, G12D); assay: Protein-protein interaction inhibition between Kras and SOS1 (KrasGl2D-SOS PPI) using AlphaScreen; assay type: binding; settings: AlphaScreen; biotin-tagged human Kras loaded with GDP, His-tagged human SOS1; read-out: KRAS G12D-SOS PPI IC50
T1 construct: made in house; host or cells: E. coli (stated for Kras only)
Outline: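 AlphaScreen format: Ni donor beads capture His-SOS1, streptavidin acceptor beads capture biotinylated Kras (E. coli-expressed, GDP-loaded post-purification). Excite 680 nm, read 520-620 nm.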

[2] = test system: Human pancreatic cancer cell line AsPC-1; assay: Measurement of AsPC-1 cell growth inhibition (AsPC-1 CGI); assay type: cell-based; settings: 96 h
Outline: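 AsPC-1 cells in 15% FBS RPMI-1640 were exposed to test compound for 96 hours at 37° C, with CellTiter-Glo as endpoint.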

T1 sequence (P01116 1-188 isoform P01116-2 G12D): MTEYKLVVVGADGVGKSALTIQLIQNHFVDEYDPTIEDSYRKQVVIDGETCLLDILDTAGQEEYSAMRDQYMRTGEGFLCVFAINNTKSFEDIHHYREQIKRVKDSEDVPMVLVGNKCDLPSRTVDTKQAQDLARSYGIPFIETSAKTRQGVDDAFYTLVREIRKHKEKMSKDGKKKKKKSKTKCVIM

Compound	IC50 [1] [µM]	IC50 [2] [µM]
CCCOC[C@H]1C(=O)N(C)CC(=O)N[C@@H](CCc2ccc(C(F)(F)F)c(Cl)c2)C(=O)N2CCC[C@H]2C(=O)NC2(CCCC2)C(=O)N(C)[C@@H](C2CCCCC2)C(=O)N(C)[C@H](C(=O)N2CCOCC2)CC(=O)N(C)[C@@H](CC(F)(F)F)C(=O)N[C@@H]([C@@H](C)CC)C(=O)N(C)CC(=O)N(C)CC(=O)N1C [Compound 445] ([NMeAbu(4,4,4-F3)]I[Sar][Sar][NMeS](Propyl)[Sar][hPhe(3-Cl-4-CF3)]P[Ac5c][NMeChg][NMeD]-Morpholide; lactam N-11)	0.00067	0.1 to 0.5
CC[C@H](C)[C@@H]1NC(=O)[C@H](CC(C)C)N(C)C(=O)C[C@@H](C(=O)N(C)C)N(C)C(=O)[C@H](C2CCCC2)N(C)C(=O)C2(CCCC2)NC(=O)[C@H](Cc2cccc(C)c2)N(C)C(=O)[C@H](CCc2ccc(C(F)(F)F)c(Cl)c2)NC(=O)CN(C)C(=O)[C@H](CC2CCCCC2)N(C)C(=O)[C@@H]2CCN2C(=O)[C@H](C)N(C)C1=O [Compound 449] ([NMeL]I[NMeA][Aze][NMeCha][Sar][hPhe(3-Cl-4-CF3)][NMePhe(3-Me)][Ac5c][NMeGly(cPent)][NMeD]-NMe2; lactam N-11)	0.03	0.1 to 0.5
CC[C@H](C)[C@@H]1NC(=O)[C@H](C2CCCCC2)N(C)C(=O)C[C@@H](C)NC(=O)[C@H](C(C)C)N(C)C(=O)C2(CCCC2)NC(=O)[C@@H]2CCCN2C(=O)[C@H](CCc2ccc(C(F)(F)F)c(Cl)c2)NC(=O)CN(C)C(=O)[C@H](CC2CCCCC2)N(C)C(=O)CN(C)C(=O)CN(C)C1=O [Compound 456] (cyclo([Ac5c][NMeV][d(β3hA)][NMeChg]I[Sar][Sar][NMeCha][Sar][hPhe(3-Cl-4-CF3)]P))	0.034	0.1 to 0.5
CC[C@H](C)[C@@H]1NC(=O)[C@H](C2CCC2)N(C)C(=O)C[C@@H](C(=O)N2C3CCC2COC3)N(C)C(=O)[C@H](C2CCCCC2)N(C)C(=O)C2(CCCC2)NC(=O)[C@@H]2CCCN2C(=O)[C@H](CCc2ccc(C(F)(F)F)c(Cl)c2)NC(=O)CN(C)C(=O)[C@H](CC2CCCC2)N(C)C(=O)CN(C)C(=O)CN(C)C1=O [Compound 461] ([NMeGly(cBu)]I[Sar][Sar][NMeAla(cPent)][Sar][hPhe(3-Cl-4-CF3)]P[Ac5c][NMeChg][NMeD]-{3Oxa8azabicyclo(3.2.1)octane}; lactam N-11)	0.0012	0.1 to 0.5
CCC[C@H]1C(=O)NC2(CCCC2)C(=O)N(C)[C@@H](C2CCCCC2)C(=O)N(C)[C@H](C(=O)N2CCCCC2)CC(=O)N(C)[C@@H](CC(C)C)C(=O)N[C@@H]([C@@H](C)CC)C(=O)N(C)CC(=O)N2CC[C@H]2C(=O)N(C)[C@@H](CC2CCCCC2)C(=O)N(C)CC(=O)N[C@@H](CCc2ccc(C(F)(F)F)c(Cl)c2)C(=O)N1C [Compound 478] ([NMeL]I[Sar][Aze][NMeCha][Sar][hPhe(3-Cl-4-CF3)][NMeNva][Ac5c][NMeChg][NMeD]-Piperidide; lactam N-11)	0.003	0.1 to 0.5
CC[C@H](C)[C@@H]1NC(=O)[C@H](CC(C)C)N(C)C(=O)C[C@@H](C(=O)N2CCCCC2)N(C)C(=O)[C@H](C2CCCCC2)N(C)C(=O)C2(CCCC2)NC(=O)[C@H](Cc2ccncc2)N(C)C(=O)[C@H](CCc2ccc(C(F)(F)F)c(Cl)c2)NC(=O)CN(C)C(=O)[C@H](CC2CCCCC2)N(C)C(=O)[C@@H]2CCN2C(=O)CN(C)C1=O [Compound 480] ([NMeL]I[Sar][Aze][NMeCha][Sar][hPhe(3-Cl-4-CF3)][NMe4Pal][Ac5c][NMeChg][NMeD]-Piperidide; lactam N-11)	0.0014	0.1 to 0.5
CC[C@H](C)[C@@H]1NC(=O)[C@H](C)N(C)C(=O)C[C@@H](C(=O)N2CCCCC2)N(C)C(=O)[C@H](C2CCCCC2)N(C)C(=O)C2(CCCC2)NC(=O)[C@@H]2CCCN2C(=O)[C@H](CCc2ccc(C(F)(F)F)c(F)c2)NC(=O)CN(C)C(=O)[C@H](CC2CCCCC2)N(C)C(=O)CN(C)C(=O)CN(C)C1=O [Compound 491] ([NMeA]I[Sar][Sar][NMeCha][Sar][hPhe(3-F,4-CF3)]P[Ac5c][NMeChg][NMeD]-Piperidide; lactam N-11)	0.00035	0.1 to 0.5
CC[C@H](C)[C@@H]1NC(=O)[C@H](COCC(F)(F)F)N(C)C(=O)C[C@@H](C(=O)N2CCCCC2)N(C)C(=O)[C@H](C2CCCCC2)N(C)C(=O)C2(CCCC2)NC(=O)[C@@H]2CCCN2C(=O)[C@H](CCc2ccc(C(F)(F)F)c(Cl)c2)NC(=O)CN(C)C(=O)[C@H](CC2CCCCC2)N(C)C(=O)CN(C)C(=O)CN(C)C1=O [Compound 518] ([NMeS](Trifluoroethyl)I[Sar][Sar][NMeCha][Sar][hPhe(3-Cl-4-CF3)]P[Ac5c][NMeChg][NMeD]-Piperidide; lactam N-11)	0.00067	0.05 to 0.1
CC[C@H](C)[C@@H]1NC(=O)[C@H](CC(C)C)N(C)C(=O)C[C@@H](C)NC(=O)[C@H](C(C)C)N(C)C(=O)C2(CCC2)NC(=O)[C@@H]2CCCN2C(=O)[C@H](CCc2ccc(C(F)(F)F)c(Cl)c2)NC(=O)CN(C)C(=O)[C@H](CC2CCCCC2)N(C)C(=O)CN(C)C(=O)CN(C)C1=O [Compound 520] (cyclo([Ac4c][NMeV][d(β3hA)][NMeL]I[Sar][Sar][NMeCha][Sar][hPhe(3-Cl-4-CF3)]P))	0.017	0.1 to 0.5
CC[C@H](C)[C@@H]1NC(=O)[C@H](CC(C)C)N(C)C(=O)C[C@@H](C(=O)N2CCCCC2)N(C)C(=O)[C@H](C(C)C)N(C)C(=O)C2(CCCC2)NC(=O)[C@@H]2CCCN2C(=O)[C@H](CCc2ccc(C(F)(F)F)c(Cl)c2)NC(=O)CN(C)C(=O)[C@H](C2CCCCC2)N(C)C(=O)[C@@H]2CCN2C(=O)[C@H](C)N(C)C1=O [Compound 526] ([NMeL]I[NMeA][Aze][NMeChg][Sar][hPhe(3-Cl-4-CF3)]P[Ac5c][NMeV][NMeD]-Piperidide; lactam N-11)	0.0066	0.1 to 0.5
CC[C@H](C)[C@@H]1NC(=O)[C@H](C)N(C)C(=O)C[C@@H](C(=O)N2CCCCC2)N(CC)C(=O)[C@H](C2CCCC2)N(C)C(=O)C2(CCCC2)NC(=O)[C@@H]2CCCN2C(=O)[C@H](CCc2ccc(C(F)(F)F)c(Cl)c2)NC(=O)CN(C)C(=O)[C@H](CC2CCCCC2)N(C)C(=O)CN(C)C(=O)CN(C)C1=O [Compound 532] ([NMeA]I[Sar][Sar][NMeCha][Sar][hPhe(3-Cl-4-CF3)]P[Ac5c][NMeGly(cPent)][NEtAsp]-Piperidide; lactam N-11)	0.00048	0.05 to 0.1
CO[C@H](C)[C@@H]1NC(=O)[C@H](CC(C)C)N(C)C(=O)C[C@@H](C(=O)N2CCCCC2)N(C)C(=O)[C@H](C2CCCCC2)N(C)C(=O)C2(CCCC2)NC(=O)[C@@H]2CCCN2C(=O)[C@H](CCc2ccc(C(F)(F)F)c(Cl)c2)NC(=O)CN(C)C(=O)[C@H](CC2CCCCC2)N(C)C(=O)CN(C)C(=O)CN(C)C1=O [Compound 535] ([NMeL]T(Me)[Sar][Sar][NMeCha][Sar][hPhe(3-Cl-4-CF3)]P[Ac5c][NMeChg][NMeD]-Piperidide; lactam N-11)	0.00065	0.05 to 0.1
CC[C@H](C)[C@@H]1NC(=O)[C@H](CC(C)C)N(C)C(=O)C[C@@H](C(=O)N2CCCCC2)N(C)C(=O)[C@H](C2CCCCC2)N(C)C(=O)C2(CCCC2)NC(=O)[C@@H]2CCCN2C(=O)[C@H](CCc2ccc(C(F)(F)F)c(Cl)c2)NC(=O)CN(C)C(=O)[C@H](CC2CCCCC2)N(CC)C(=O)CN(C)C(=O)CN(C)C1=O [Compound 543] ([NMeL]I[Sar][Sar][X6][Sar][hPhe(3-Cl-4-CF3)]P[Ac5c][NMeChg][NMeD]-Piperidide; lactam N-11)	0.00056	0.05 to 0.1
CCC[C@H]1C(=O)N(C)[C@H](C(=O)N2CCCCC2)CC(=O)N(C)[C@@H](CC(C)C)C(=O)N[C@@H]([C@@H](C)CC)C(=O)N(C)CC(=O)N(C)CC(=O)N(C)[C@@H](CC2CCCCC2)C(=O)N(C)CC(=O)N[C@@H](CCc2ccc(C(F)(F)F)c(Cl)c2)C(=O)N2CCC[C@H]2C(=O)NC2(CCCC2)C(=O)N1C [Compound 548] ([NMeL]I[Sar][Sar][NMeCha][Sar][hPhe(3-Cl-4-CF3)]P[Ac5c][NMeNva][NMeD]-Piperidide; lactam N-11)	0.0016	0.1 to 0.5
C#CC[C@H]1C(=O)N[C@@H]([C@@H](C)CC)C(=O)N(C)CC(=O)N(C)CC(=O)N(C)[C@@H](CC2CCCCC2)C(=O)N(C)CC(=O)N[C@@H](CCc2ccc(C(F)(F)F)c(Cl)c2)C(=O)N2CCC[C@H]2C(=O)NC2(CCCC2)C(=O)N(C)[C@@H](C2CCCCC2)C(=O)N(C)[C@H](C(=O)N2CCCCC2)CC(=O)N1C [Compound 551] ([NMePra]I[Sar][Sar][NMeCha][Sar][hPhe(3-Cl-4-CF3)]P[Ac5c][NMeChg][NMeD]-Piperidide; lactam N-11)	0.00052	0.05 to 0.1
CC(C)C[C@H]1C(=O)N[C@@H](C2CCCCC2)C(=O)N(C)CC(=O)N(C)CC(=O)N(C)[C@@H](CC2CCCCC2)C(=O)N(C)CC(=O)N[C@@H](CCc2ccc(C(F)(F)F)c(Cl)c2)C(=O)N2CCC[C@H]2C(=O)NC2(CCCC2)C(=O)N(C)[C@@H](C2CCCCC2)C(=O)N(C)[C@H](C(=O)N2CCCCC2)CC(=O)N1C [Compound 552] ([NMeL][Chg][Sar][Sar][NMeCha][Sar][hPhe(3-Cl-4-CF3)]P[Ac5c][NMeChg][NMeD]-Piperidide; lactam N-11)	0.00063	0.1 to 0.5
CC[C@H](C)[C@@H]1NC(=O)[C@H](CC2CC2)N(C)C(=O)C[C@@H](C(=O)N2CCCCC2)N(C)C(=O)[C@H](C(C)C)N(C)C(=O)C2(CCCC2)NC(=O)[C@@H]2CCCN2C(=O)[C@H](CCc2ccc(C(F)(F)F)c(Cl)c2)NC(=O)CN(C)C(=O)[C@H](CC2CCCCC2)N(C)C(=O)CN(C)C(=O)CN(C)C1=O [Compound 561] ([NMeAla(cPr)]I[Sar][Sar][NMeCha][Sar][hPhe(3-Cl-4-CF3)]P[Ac5c][NMeV][NMeD]-Piperidide; lactam N-11)	0.0034	0.1 to 0.5
